Data reported in PubChem BioAssay AID330 (DTP/NCI, 2004).
“And” between values parts separate entries of the source, which are not always exact repeats. Identical values can stand only once. Toxic doses and inconclusive results are not listed.

Tested on: P388 leukemia ip, CD2F1 mice, survival T/C
Assay: NCI In Vivo Anticancer Drug Screen. Data for tumor model P388 Leukemia (intraperitoneal) in CD2F1 (CDF1) mice
Settings: endpoint: median survival time, higher = longer survival
In short: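 Mice carrying the transplanted tumor received test compound or vehicle. Survival was recorded in each group, and the value is the treated-group measurement divided by that of the vehicle-treated control group.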

[1] = dose: 100.0 mg/kg/injection, schedule: Q04DX003 (ip), vehicle: saline with Tween-80
[2] = dose: 200.0 mg/kg/injection, schedule: Q04DX003 (ip), vehicle: saline with Tween-80
[3] = dose: 400.0 mg/kg/injection, schedule: Q04DX003 (ip), vehicle: saline with Tween-80
[4] = dose: 60.0 mg/kg/injection, schedule: Q01DX005 (ip), vehicle: saline with Tween-80
[5] = dose: 120.0 mg/kg/injection, schedule: Q01DX005 (ip), vehicle: saline with Tween-80
[6] = dose: 50.0 mg/kg/injection, schedule: Q01DX005 (ip), vehicle: saline
[7] = dose: 50.0 mg/kg/injection, schedule: Q01DX009 (ip), vehicle: saline
[8] = dose: 100.0 mg/kg/injection, schedule: Q01DX009 (ip), vehicle: saline
[9] = dose: 200.0 mg/kg/injection, schedule: Q01DX009 (ip), vehicle: saline
[10] = dose: 50.0 mg/kg/injection, schedule: Q01DX009 (ip), vehicle: Klucel (hydroxypropylcellulose) (HPC)

Question: What does the source list for CC(=O)Oc1ccc[nH]c1=O?
Answer: T/C (dose: 100.0 mg/kg/injection, schedule: Q01DX009 (ip), vehicle: saline with Tween-80): 104 % of control; T/C [1]: 113 % of control; T/C (dose: 200.0 mg/kg/injection, schedule: Q01DX009 (ip), vehicle: saline with Tween-80): 118 % of control; T/C [2]: 104 % of control; T/C (dose: 300.0 mg/kg/injection, schedule: Q01DX009 (ip), vehicle: saline): 155 % of control; T/C (dose: 400.0 mg/kg/injection, schedule: Q01DX009 (ip), vehicle: saline): 158 % of control; T/C [3]: 109 % of control; T/C (dose: 500.0 mg/kg/injection, schedule: Q01DX009 (ip), vehicle: saline): 87 % of control and 91 % of control; T/C (dose: 600.0 mg/kg/injection, schedule: Q01DX009 (ip), vehicle: saline sonified): 115 % of control; T/C (dose: 600.0 mg/kg/injection, schedule: Q01DX009 (ip), vehicle: saline with Tween-80): 172 % of control; T/C (dose: 600.0 mg/kg/injection, schedule: Q01DX009 (ip), vehicle: saline): 110 % of control

Question: With O=C1C=C(SCCO)C(=O)c2ccccc21 as the compound, how does the T/C (dose: 0.62 mg/kg/injection, schedule: Q01DX009 (ip), vehicle: saline with Tween-80) read?
Answer: 100 % of control

Question: What about the T/C (dose: 1.25 mg/kg/injection, schedule: Q01DX009 (ip), vehicle: saline with Tween-80) of the same compound?
Answer: 100 % of control

Question: What about the T/C (dose: 2.5 mg/kg/injection, schedule: Q01DX009 (ip), vehicle: saline with Tween-80) of the same compound?
Answer: 95 % of control

Question: For O=NNc1ccc(Br)cn1, which T/C (dose: 1.5 mg/kg/injection, schedule: Q01DX008 (ip), vehicle: water) is on record?
Answer: 100 % of control

Question: And the T/C (dose: 1.56 mg/kg/injection, schedule: Q01DX009 (ip), vehicle: water)?
Answer: 115 % of control

Question: What about the T/C (dose: 6.25 mg/kg/injection, schedule: Q01DX008 (ip), vehicle: water) of the same compound?
Answer: 154 % of control

Question: And the T/C (dose: 12.5 mg/kg/injection, schedule: Q01DX009 (ip), vehicle: water)?
Answer: 184 % of control

Question: What about the T/C (dose: 25.0 mg/kg/injection, schedule: Q01DX008 (ip), vehicle: water) of the same compound?
Answer: 181 % of control

Question: What does the source list for Cc1cccc(OCC(O)CN2CC2)c1 (configuration not stated)?
Answer: T/C (dose: 100.0 mg/kg/injection, schedule: Q01DX001 (ip), vehicle: saline with Tween-80): 112 % of control; T/C (dose: 200.0 mg/kg/injection, schedule: Q01DX001 (ip), vehicle: saline with Tween-80): 120 % of control; T/C (dose: 400.0 mg/kg/injection, schedule: Q01DX001 (ip), vehicle: saline with Tween-80): 103 % of control

Question: For O=c1c2ccc(Cl)cc2nc2nc(-c3ccccc3)c3cc(Cl)ccc3n12, which T/C [4] is on record?
Answer: 107 % of control

Question: What about the T/C [5] of the same compound?
Answer: 106 % of control

Question: What about the T/C (dose: 240.0 mg/kg/injection, schedule: Q01DX005 (ip), vehicle: saline with Tween-80) of the same compound?
Answer: 97 % of control

Question: How did the T/C (dose: 1.56 mg/kg/injection, schedule: Q01DX005 (ip), vehicle: distilled water + Tween-80) turn out when CC(C)CCCC(C)C1CCC2C3CC=C4CC(OC(=O)C56C=CC(=O)C5C5C=CC6CC5)CCC4(C)C3CCC12C (configuration not stated) was run?
Answer: 100 % of control

Question: And the T/C (dose: 3.12 mg/kg/injection, schedule: Q01DX005 (ip), vehicle: distilled water + Tween-80)?
Answer: 90 % of control

Question: What about the T/C (dose: 200.0 mg/kg/injection, schedule: Q01DX005 (ip), vehicle: distilled water + Tween-80) of the same compound?
Answer: 86 % of control

Question: Which T/C (dose: 6.25 mg/kg/injection, schedule: Q04DX002 (ip), vehicle: saline) does the source give for CS(=O)(=O)C#CCCCCCCC#CS(C)(=O)=O here?
Answer: 104 % of control

Question: And the T/C (dose: 12.5 mg/kg/injection, schedule: Q04DX002 (ip), vehicle: saline)?
Answer: 97 % of control

Question: And the T/C (dose: 25.0 mg/kg/injection, schedule: Q04DX002 (ip), vehicle: saline)?
Answer: 102 % of control

Question: Which T/C [6] does the source give for C/C=C/C(/C=C/C)(C(=O)OCCN(CC)CC)C(/C=C/C)(/C=C/C)C(=O)OCCN(CC)CC here?
Answer: 101 % of control

Question: And the T/C (dose: 100.0 mg/kg/injection, schedule: Q01DX005 (ip), vehicle: saline)?
Answer: 101 % of control

Question: And the T/C (dose: 200.0 mg/kg/injection, schedule: Q01DX005 (ip), vehicle: saline)?
Answer: 97 % of control

Question: COc1ccccc1N=Nc1c(-c2cccs2)nn(C(N)=S)c1C(F)(F)F was tested. Which T/C (dose: 60.0 mg/kg/injection, schedule: Q01DX005 (ip), vehicle: Klucel (hydroxypropylcellulose) (HPC)) did it give?
Answer: 99 % of control

Question: What about the T/C (dose: 120.0 mg/kg/injection, schedule: Q01DX005 (ip), vehicle: Klucel (hydroxypropylcellulose) (HPC)) of the same compound?
Answer: 97 % of control

Question: What about the T/C (dose: 240.0 mg/kg/injection, schedule: Q01DX005 (ip), vehicle: Klucel (hydroxypropylcellulose) (HPC)) of the same compound?
Answer: 89 % of control

Question: CSc1nc(NC2OC(COC(C)=O)C(OC(C)=O)C(OC(C)=O)C2OC(C)=O)c(N=C(C)C(C)=O)c(=O)n1C (configuration not stated) was tested. Which T/C [4] did it give?
Answer: 90 % of control

Question: And the T/C [5]?
Answer: 91 % of control

Question: What does the source list for O=C(O)CC(CC(=O)O)CN(CC(=O)O)Cc1ccccc1?
Answer: T/C (dose: 20.0 mg/kg/injection, schedule: Q01DX005 (ip), vehicle: Klucel (hydroxypropylcellulose) (HPC)): 102 % of control; T/C (dose: 40.0 mg/kg/injection, schedule: Q01DX005 (ip), vehicle: Klucel (hydroxypropylcellulose) (HPC)): 90 % of control; T/C (dose: 80.0 mg/kg/injection, schedule: Q01DX005 (ip), vehicle: Klucel (hydroxypropylcellulose) (HPC)): 91 % of control

Question: Which T/C (dose: 100.0 mg/kg/injection, schedule: Q04DX003 (ip), vehicle: other) does the source give for CCCCCCCCCC(O)CCCCCCCCC here?
Answer: 100 % of control

Question: What about the T/C (dose: 200.0 mg/kg/injection, schedule: Q04DX003 (ip), vehicle: other) of the same compound?
Answer: 90 % of control

Question: What about the T/C (dose: 400.0 mg/kg/injection, schedule: Q04DX003 (ip), vehicle: other) of the same compound?
Answer: 90 % of control

Question: Which results are given for COP(=O)(O)Oc1ccccc1 (tested in a mixture with another compound)?
Answer: T/C [7]: 101 % of control; T/C [8]: 100 % of control; T/C [9]: 99 % of control

Question: Which T/C (dose: 2.0 mg/kg/injection, schedule: Q01DX009 (ip), vehicle: saline) does the source give for C[CH2][Pb]([CH2]C)([CH2]C)[O]C(=O)CBr here?
Answer: 111 % of control

Question: And the T/C (dose: 3.0 mg/kg/injection, schedule: Q01DX009 (ip), vehicle: saline)?
Answer: 117 % of control

Question: What about the T/C (dose: 4.5 mg/kg/injection, schedule: Q01DX009 (ip), vehicle: saline) of the same compound?
Answer: 119 % of control

Question: COc1c(Cl)c(=O)oc2ccc(Cl)cc12 was tested. Which T/C (dose: 6.25 mg/kg/injection, schedule: Q01DX009 (ip), vehicle: Klucel (hydroxypropylcellulose) (HPC)) did it give?
Answer: 104 % of control

Question: What about the T/C (dose: 12.5 mg/kg/injection, schedule: Q01DX009 (ip), vehicle: Klucel (hydroxypropylcellulose) (HPC)) of the same compound?
Answer: 99 % of control

Question: What about the T/C (dose: 25.0 mg/kg/injection, schedule: Q01DX009 (ip), vehicle: Klucel (hydroxypropylcellulose) (HPC)) of the same compound?
Answer: 97 % of control

Question: And the T/C [10]?
Answer: 104 % of control

Question: What does the source list for O=C(NCc1ccncc1)c1ccccc1?
Answer: T/C (dose: 100.0 mg/kg/injection, schedule: Q04DX003 (ip), vehicle: saline): 104 % of control; T/C (dose: 200.0 mg/kg/injection, schedule: Q04DX003 (ip), vehicle: saline): 100 % of control; T/C (dose: 400.0 mg/kg/injection, schedule: Q04DX003 (ip), vehicle: saline): 106 % of control

Question: Which T/C [1] does the source give for COC(=O)C(O)c1cccc(OC)c1 (configuration not stated) here?
Answer: 113 % of control

Question: And the T/C [2]?
Answer: 100 % of control

Question: And the T/C [3]?
Answer: 109 % of control

Question: CCC(=O)C1(C)OC1C(C)CC(C)C1OC(=O)CC2(O)CC=C(C)C(O2)/C(C)=C/CCCC(OC2CC(OC(N)=O)C(O)C(C)O2)/C=C/C(C)C(O)C1C (configuration not stated) was tested. Which T/C (dose: 6.2 mg/kg/injection, schedule: Q01DX005 (ip), vehicle: Klucel (hydroxypropylcellulose) (HPC)) did it give?
Answer: 109 % of control

Question: What about the T/C (dose: 12.5 mg/kg/injection, schedule: Q01DX005 (ip), vehicle: Klucel (hydroxypropylcellulose) (HPC)) of the same compound?
Answer: 98 % of control

Question: And the T/C (dose: 25.0 mg/kg/injection, schedule: Q01DX005 (ip), vehicle: Klucel (hydroxypropylcellulose) (HPC))?
Answer: 103 % of control

Question: What about the T/C (dose: 50.0 mg/kg/injection, schedule: Q01DX005 (ip), vehicle: Klucel (hydroxypropylcellulose) (HPC)) of the same compound?
Answer: 108 % of control

Question: How did the T/C (dose: 12.5 mg/kg/injection, schedule: Q01DX009 (ip), vehicle: saline) turn out when COC(OC)C(C)N1CCCCC1 (configuration not stated) was run?
Answer: 104 % of control

Question: What about the T/C (dose: 25.0 mg/kg/injection, schedule: Q01DX009 (ip), vehicle: saline) of the same compound?
Answer: 97 % of control

Question: And the T/C [7]?
Answer: 99 % of control and 96 % of control

Question: For CC1(C)N=C(N)N=C(N)N1c1ccc(Cl)cc1Cl, which T/C (dose: 12.0 mg/kg/injection, schedule: Q01DX005 (ip), vehicle: saline) is on record?
Answer: 102 % of control

Question: And the T/C (dose: 25.0 mg/kg/injection, schedule: Q01DX005 (ip), vehicle: saline)?
Answer: 100 % of control

Question: And the T/C [6]?
Answer: 104 % of control and 98 % of control

Question: For COC(=O)C(Cl)Cc1cnc[nH]1 (configuration not stated), which T/C [7] is on record?
Answer: 92 % of control

Question: What about the T/C [8] of the same compound?
Answer: 98 % of control

Question: What about the T/C [9] of the same compound?
Answer: 92 % of control

Question: What does the source list for N#CC1C(=O)NC(=O)C(C#N)C1c1ccc(C2C(C#N)C(=O)NC(=O)C2C#N)cc1 (configuration not stated)?
Answer: T/C [10]: 105 % of control; T/C (dose: 100.0 mg/kg/injection, schedule: Q01DX009 (ip), vehicle: Klucel (hydroxypropylcellulose) (HPC)): 100 % of control; T/C (dose: 200.0 mg/kg/injection, schedule: Q01DX009 (ip), vehicle: Klucel (hydroxypropylcellulose) (HPC)): 113 % of control
